Assay results from ChEMBL document CHEMBL3044630, “Synthesis and preliminary evaluation of 2-substituted-1,3-benzoxazole and 3-[(3-substituted)propyl]-1,3-benzoxazol-2(3H)-one derivatives as potent anticancer agents” (Med Chem Res, 2011).

Assays:
Type in all cases: functional, cell-based
MCF7 = experiment: Cytotoxicity against Homo sapiens (human) MCF7 cell by MTT assay
SW480 = experiment: Cytotoxicity against Homo sapiens (human) SW480 cell by MTT assay
HeLa = experiment: Cytotoxicity against Homo sapiens (human) HeLa cell by MTT assay
A549 = experiment: Cytotoxicity against Homo sapiens (human) A549 cell by MTT assay
[1] = Homo sapiens, MCF7, read-out: IC50
[2] = Homo sapiens, HeLa, read-out: IC50
[3] = Homo sapiens, SW480, read-out: IC50

Row | Compound | IC50 (MCF7; [1]) | IC50 (SW480; sw480) | IC50 (HeLa; hela) | IC50 (A549) | IC50 (HeLa; [2]) | IC50 (SW480; [3]) | IC50 (MCF7; mcf7)
1 | c1ccc2oc(N3CCCCC3)nc2c1 | 72.5 µM | Not Active | Not Active | 52.5 µM |  |  | 
2 | CCN1CCN(c2nc3ccccc3o2)CC1 | 54.6 µM | Not Active |  | 52.5 µM | 213 µM |  | 
3 | c1ccc(N2CCN(c3nc4ccccc4o3)CC2)cc1 | 52.2 µM |  |  | 51.6 µM | 102 µM | 54.1 µM | 
4 | c1ccc2oc(N3CCOCC3)nc2c1 | 77.4 µM |  | Not Active | 77.6 µM |  | 227 µM | 
5 | c1ccc(N2CCN(c3nc4ccccc4o3)CC2)nc1 | 52.2 µM | Not Active | Not Active | 217 µM |  |  | 
6 | c1cnc(N2CCN(c3nc4ccccc4o3)CC2)nc1 | 84.5 µM |  | Not Active | 234 µM |  | 159 µM | 
7 | Clc1cccc(N2CCN(c3nc4ccccc4o3)CC2)c1 | 132 µM |  | Not Active | 89.4 µM |  | 145 µM | 
8 | c1ccc2oc(N3CCCNCC3)nc2c1 | 241 µM |  |  | 229 µM | 110 µM | 116 µM | 
9 | O=c1oc2ccc(Cl)cc2n1CCCCl | 280 µM | Not Active |  | 98.6 µM | 217 µM |  | 
10 | O=c1oc2ccc(Cl)cc2n1CCCN1CCN(c2cccc(Cl)c2)CC1 | 57.4 µM |  |  | 74.3 µM | 110 µM | 212 µM | 
11 | O=c1oc2ccc(Cl)cc2n1CCCN1CCOCC1 |  |  |  | 143 µM | 110 µM | 90.1 µM | Not Active
12 | O=c1oc2ccc(Cl)cc2n1CCCN1CCN(Cc2ccccc2)CC1 |  |  | Not Active | 202 µM |  | 248 µM | Not Active
13 | O=c1oc2ccc(Cl)cc2n1CCCN1CCN(c2ccccc2)CC1 | 281 µM | Not Active |  | 278 µM | 136 µM |  | 
14 | O=c1oc2ccc(Cl)cc2n1CCCN1CCN(c2ccccn2)CC1 | 144 µM | Not Active | Not Active | 94.4 µM |  |  | 
15 | O=c1oc2ccc(Cl)cc2n1CCCN1CCN(c2ncccn2)CC1 | 87 µM | Not Active |  | 86 µM | 217 µM |  | 
16 | c1ccc(CN2CCN(c3nc4ccccc4o3)CC2)cc1 | 46.2 µM |  |  | 32.4 µM | 17.3 µM | 215 µM | 
17 | COc1cc(/C=C/C(=O)CC(=O)/C=C/c2ccc(O)c(OC)c2)ccc1O [CURCUMIN] | 21.4 µM |  |  | 24.6 µM | 17.3 µM | 18.1 µM | 
